Literature values in patent US20160022604A1, “DIRECTLY COMPRESSED OSPEMIFENE COMPOSITIONS” (CADILA HEALTHCARE LIMITED, priority 2014, published 2016).

Key:
[1] = classical hormonal tests
[2] = experimental models and human volunteers

OCCOc1ccc(/C(=C(/CCCl)c2ccccc2)c2ccccc2)cc1 [Ospemifene, 2-[4-(4-chloro-1,2-diphenylbut-1-enyl)phenoxy]ethanol]
estrogenic and antiestrogenic effects [1]: relatively weak | total and LDL cholesterol levels [2]: decreases
